Results published in patent US9822124B2, “Bicyclic heteroaromatic carboxamide compounds useful as Pim kinase inhibitors” (Incyte Corporation, priority 2014, dated 2017).

Assays:
Format in all cases: biochemical
[1] = molecular target: Pim-1 (Homo sapiens (Human), UniProt P11309); experiment: Pim-1 kinase assay (AlphaScreen, Biotin-labeled BAD peptide substrate); conditions: 1 mM ATP; read-out: Pim1 IC50
In short: (§1)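 Kinase reactions ran 1 h at 25° C, pH 7.5, with 0.05 μM biotin-BAD peptide, 1 mM ATP, and 2.5 μM Pim-1 or 1.25 μM Pim-3. EDTA stop buffer carried anti-phospho-Bad (Ser112) antibody plus streptavidin donor and Protein-A acceptor beads. AlphaScreen signal was read after 1 h in the dark.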

[2] = molecular target: Pim-2 (Homo sapiens (Human), UniProt Q9P1W9); experiment: Pim-2 kinase assay (TR-FRET, Fluorescein-labeled CREBtide peptide substrate); conditions: 1 mM ATP; read-out: Pim2 IC50
In short: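 Human Pim-2 (1 nM) phosphorylated 0.05 μM fluorescein-CREBtide with 1 mM ATP for 2 h at 25 °C in Tris buffer pH 7.5 containing MgCl2, DTT, BSA and Tween-20. Reactions were stopped with EDTA and Tb-anti-pSer133 antibody was added, and TR-FRET was read after 30 min.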

[3] = molecular target: Pim-3 (Homo sapiens (Human), UniProt Q86V86); experiment: Pim-3 kinase assay (AlphaScreen, Biotin-labeled BAD peptide substrate); conditions: 1 mM ATP; read-out: Pim3 IC50
In short: as §1

Sequence of Pim-2 (Q9P1W9 whole entry): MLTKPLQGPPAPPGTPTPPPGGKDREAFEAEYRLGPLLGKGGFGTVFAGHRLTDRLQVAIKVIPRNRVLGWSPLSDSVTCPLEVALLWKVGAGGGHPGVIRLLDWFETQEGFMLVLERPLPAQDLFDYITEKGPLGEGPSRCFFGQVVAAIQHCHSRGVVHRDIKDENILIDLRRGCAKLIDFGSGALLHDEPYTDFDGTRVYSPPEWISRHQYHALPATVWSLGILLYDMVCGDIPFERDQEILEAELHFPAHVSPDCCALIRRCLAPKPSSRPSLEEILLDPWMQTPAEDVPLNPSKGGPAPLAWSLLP
Sequence of Pim-1 (P11309 whole entry): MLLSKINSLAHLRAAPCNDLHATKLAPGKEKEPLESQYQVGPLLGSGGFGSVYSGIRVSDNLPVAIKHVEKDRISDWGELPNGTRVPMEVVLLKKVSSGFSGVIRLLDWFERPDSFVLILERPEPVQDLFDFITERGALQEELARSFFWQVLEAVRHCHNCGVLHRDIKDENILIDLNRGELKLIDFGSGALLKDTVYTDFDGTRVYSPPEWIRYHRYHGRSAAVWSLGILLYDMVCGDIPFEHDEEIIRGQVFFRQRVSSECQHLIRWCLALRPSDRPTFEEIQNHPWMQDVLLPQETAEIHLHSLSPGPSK

SMILES | IC50 [1] | IC50 [2] | IC50 [3]
COc1ccc(-c2coc3ccc(C(=O)Nc4cnccc4N4C[C@@H](N)[C@H](O)[C@@H](C)C4)nc23)cn1 [Example 14, N-(4-((3R,4R,5S)-3-Amino-4-hydroxy-5-methylpiperidin-1-yl)pyridin-3-yl)-3-(6-methoxypyridin-3-yl)furo[3,2-b]pyridine-5-carboxamide] | ≤ 10 nM | 1000 to 10000 nM | 10 to 50 nM
COc1cncc(-c2coc3ccc(C(=O)Nc4cnccc4N4C[C@H](C)C[C@H](N)C4)nc23)c1 [Example 32, N-(4-((3S,5R)-3-Amino-5-methylpiperidin-1-yl)pyridin-3-yl)-3-(5-methoxypyridin-3-yl)furo[3,2-b]pyridine-5-carboxamide] | ≤ 10 nM | 1000 to 10000 nM | ≤ 10 nM
CC(C)c1cc2nc(C(=O)Nc3cnccc3N3C[C@@H](N)[C@H](O)[C@@H](C)C3)ccc2o1 [Example 6, N-{4-[(3R,4R,5S)-3-Amino-4-hydroxy-5-methylpiperidin-1-yl]pyridin-3-yl}-2-isopropylfuro[3,2-b]pyridine-5-carboxamide] | 10 to 50 nM | 100 to 1000 nM | ≤ 10 nM
C[C@@H]1C[C@H](N)CN(c2ccncc2NC(=O)c2ccc3occ(C4=COCCC4)c3n2)C1 [Example 33, N-(4-((3S,5R)-3-Amino-5-methylpiperidin-1-yl)pyridin-3-yl)-3-(3,4-dihydro-2H-pyran-5-yl)furo[3,2-b]pyridine-5-carboxamide] | ≤ 10 nM | ≤ 100 nM | ≤ 10 nM
C[C@@H]1C[C@H](N)CN(c2ccncc2NC(=O)c2ccc3scc(C4CC4)c3n2)C1 [Example 65, N-(4-((3S,5R)-3-Amino-5-methylpiperidin-1-yl)pyridin-3-yl)-3-cyclopropylthieno[3,2-b]pyridine-5-carboxamide] | ≤ 10 nM | ≤ 100 nM | ≤ 10 nM
C[C@@H]1C[C@H](N)CN(c2ccncc2NC(=O)c2ccc3occ(C4CC4)c3n2)C1 [Example 35, N-(4-((3S,5R)-3-Amino-5-methylpiperidin-1-yl)pyridin-3-yl)-3-cyclopropylfuro[3,2-b]pyridine-5-carboxamide] | ≤ 10 nM | ≤ 100 nM | ≤ 10 nM
C[C@@H]1C[C@H](N)CN(c2ccncc2NC(=O)c2ccc3sc(-c4ccc(N5CCOCC5)nc4)cc3n2)C1 [Example 56, N-(4-((3S,5R)-3-Amino-5-methylpiperidin-1-yl)pyridin-3-yl)-2-(6-morpholinopyridin-3-yl)thieno[3,2-b]pyridine-5-carboxamide] | ≤ 10 nM | 100 to 1000 nM | ≤ 10 nM
C[C@@H]1C[C@H](N)CN(c2ccncc2NC(=O)c2ccc3sc(C4CC4)cc3n2)C1 [Example 59, N-(4-((3S,5R)-3-Amino-5-methylpiperidin-1-yl)pyridin-3-yl)-2-cyclopropylthieno[3,2-b]pyridine-5-carboxamide] | ≤ 10 nM | ≤ 100 nM | ≤ 10 nM
C[C@H]1CN(c2ccncc2NC(=O)c2ccc3sc(-c4ccc(N5CCOCC5)nc4)cc3n2)C[C@@H](N)[C@@H]1O [Example 44, N-(4-((3R,4R,5S)-3-Amino-4-hydroxy-5-methylpiperidin-1-yl)pyridin-3-yl)-2-(6-morpholinopyridin-3-yl)thieno[3,2-b]pyridine-5-carb oxamide] | ≤ 10 nM | 100 to 1000 nM | ≤ 10 nM
C[C@H]1CN(c2ccncc2NC(=O)c2ccc3occ(-c4c(F)cccc4F)c3n2)C[C@@H](N)[C@@H]1O [Example 11, N-(4-((3R,4R,5S)-3-Amino-4-hydroxy-5-methylpiperidin-1-yl)pyridin-3-yl)-3-(2,6-difluorophenyl)furo[3,2-b]pyridine-5-carboxamide] | ≤ 10 nM | ≤ 100 nM | ≤ 10 nM
N[C@H]1CCCN(c2ccncc2NC(=O)c2ccc3scc(C4CC4)c3n2)C1 [Example 67, (S)-N-(4-(3-Aminopiperidin-1-yl)pyridin-3-yl)-3-cyclopropylthieno[3,2-b]pyridine-5-carboxamide] | ≤ 10 nM | 100 to 1000 nM | ≤ 10 nM
C[C@@H]1C[C@H](N)CN(c2ccncc2NC(=O)c2ccc3occ(C4CCOC4)c3n2)C1 (mixture of isomers) [Example 31, N-(4-((3S,5R)-3-Amino-5-methylpiperidin-1-yl)pyridin-3-yl)-3-(tetrahydrofuran-3-yl)furo[3,2-b]pyridine-5-carboxamide] | ≤ 10 nM | 100 to 1000 nM | ≤ 10 nM
COc1cc(F)c(-c2cc3nc(C(=O)Nc4cnccc4N4C[C@H](C)C[C@H](N)C4)ccc3s2)c(F)c1 [Example 57, N-(4-((3S,5R)-3-Amino-5-methylpiperidin-1-yl)pyridin-3-yl)-2-(2,6-difluoro-4-methoxyphenyl)thieno[3,2-b]pyridine-5-carboxamide] | ≤ 10 nM | 100 to 1000 nM | ≤ 10 nM
CC(C)c1coc2ccc(C(=O)Nc3cnccc3[C@@H]3C[C@H](C)C[C@H](N)C3)nc12 [Example 68, N-{4-[(1R,3S,5S)-3-Amino-5-methylcyclohexyl]pyridin-3-yl}-3-isopropylfuro[3,2-b]pyridine-5-carboxamide] | ≤ 10 nM | ≤ 100 nM | ≤ 10 nM
C[C@H]1CN(c2ccncc2NC(=O)c2ccc3sc(-c4cnn(C)c4)cc3n2)C[C@@H](N)[C@@H]1O [Example 48, N-(4-((3R,4R,5S)-3-Amino-4-hydroxy-5-methylpiperidin-1-yl)pyridin-3-yl)-2-(1-methyl-1H-pyrazol-4-yl)thieno[3,2-b]pyridine-5-carboxamide] | ≤ 10 nM | ≤ 100 nM | ≤ 10 nM
COc1cc(F)c(-c2cc3nc(C(=O)Nc4cnccc4N4C[C@@H](N)[C@H](O)[C@@H](C)C4)ccc3s2)c(F)c1 [Example 45, N-(4-((3R,4R,5S)-3-Amino-4-hydroxy-5-methylpiperidin-1-yl)pyridin-3-yl)-2-(2,6-difluoro-4-methoxyphenyl)thieno[3,2-b]pyridine-5-carboxamide] | ≤ 10 nM | 100 to 1000 nM | ≤ 10 nM
C[C@H]1CN(c2ccncc2NC(=O)c2ccc3occ(C4CCN(C)CC4)c3n2)C[C@@H](N)[C@@H]1O [Example 16, N-(4-((3R,4R,5S)-3-Amino-4-hydroxy-5-methylpiperidin-1-yl)pyridin-3-yl)-3-(1-methylpiperidin-4-yl)furo[3,2-b]pyridine-5-carboxamide] | 10 to 50 nM | > 2000 nM | > 40 nM
C[C@@H]1C[C@H](N)CN(c2ccncc2NC(=O)c2ccc3occ(-c4c(F)cccc4F)c3n2)C1 [Example 19, N-(4-((3S,5R)-3-Amino-5-methylpiperidin-1-yl)pyridin-3-yl)-3-(2,6-difluorophenyl)furo[3,2-b]pyridine-5-carboxamide] | ≤ 10 nM | ≤ 100 nM | ≤ 10 nM
C[C@@H]1C[C@H](N)CN(c2ccncc2NC(=O)c2ccc3sc(Cc4ccccc4)cc3n2)C1 [Example 54, N-(4-((3S,5R)-3-Amino-5-methylpiperidin-1-yl)pyridin-3-yl)-2-benzylthieno[3,2-b]pyridine-5-carboxamide] | ≤ 10 nM | 100 to 1000 nM | ≤ 10 nM
C[C@H]1CN(c2ccncc2NC(=O)c2ccc3sc(-c4ccccc4F)cc3n2)C[C@@H](N)[C@@H]1O [Example 41, N-(4-((3R,4R,5S)-3-Amino-4-hydroxy-5-methylpiperidin-1-yl)pyridin-3-yl)-2-(2-fluorophenyl)thieno[3,2-b]pyridine-5-carboxamide] | ≤ 10 nM | 100 to 1000 nM | ≤ 10 nM
